# Results reported in patent US10800791B2, “Triazole ACC inhibitors and uses thereof” (Gilead Apollo, LLC, priority 2015, dated 2020).
# Where two headings read alike, the source gives them in different places.
# Legend:
# Rhizoctonia solani (Rs) = assay: Growth inhibition assay of fungal pathogens, Rs; format: cell-based; conditions: for IC90: 48 h
# human (hACC2) = human (hACC2) (Homo sapiens, UniProt O00763); assay: In vitro ACC inhibition assay (ADP-Glo), hACC2; format: biochemical; conditions: Table 2b, additional results, 5 nM ACC2, 20 μM ATP, 20 μM acetyl-CoA
# human (hACC2), sequence (O00763 whole entry): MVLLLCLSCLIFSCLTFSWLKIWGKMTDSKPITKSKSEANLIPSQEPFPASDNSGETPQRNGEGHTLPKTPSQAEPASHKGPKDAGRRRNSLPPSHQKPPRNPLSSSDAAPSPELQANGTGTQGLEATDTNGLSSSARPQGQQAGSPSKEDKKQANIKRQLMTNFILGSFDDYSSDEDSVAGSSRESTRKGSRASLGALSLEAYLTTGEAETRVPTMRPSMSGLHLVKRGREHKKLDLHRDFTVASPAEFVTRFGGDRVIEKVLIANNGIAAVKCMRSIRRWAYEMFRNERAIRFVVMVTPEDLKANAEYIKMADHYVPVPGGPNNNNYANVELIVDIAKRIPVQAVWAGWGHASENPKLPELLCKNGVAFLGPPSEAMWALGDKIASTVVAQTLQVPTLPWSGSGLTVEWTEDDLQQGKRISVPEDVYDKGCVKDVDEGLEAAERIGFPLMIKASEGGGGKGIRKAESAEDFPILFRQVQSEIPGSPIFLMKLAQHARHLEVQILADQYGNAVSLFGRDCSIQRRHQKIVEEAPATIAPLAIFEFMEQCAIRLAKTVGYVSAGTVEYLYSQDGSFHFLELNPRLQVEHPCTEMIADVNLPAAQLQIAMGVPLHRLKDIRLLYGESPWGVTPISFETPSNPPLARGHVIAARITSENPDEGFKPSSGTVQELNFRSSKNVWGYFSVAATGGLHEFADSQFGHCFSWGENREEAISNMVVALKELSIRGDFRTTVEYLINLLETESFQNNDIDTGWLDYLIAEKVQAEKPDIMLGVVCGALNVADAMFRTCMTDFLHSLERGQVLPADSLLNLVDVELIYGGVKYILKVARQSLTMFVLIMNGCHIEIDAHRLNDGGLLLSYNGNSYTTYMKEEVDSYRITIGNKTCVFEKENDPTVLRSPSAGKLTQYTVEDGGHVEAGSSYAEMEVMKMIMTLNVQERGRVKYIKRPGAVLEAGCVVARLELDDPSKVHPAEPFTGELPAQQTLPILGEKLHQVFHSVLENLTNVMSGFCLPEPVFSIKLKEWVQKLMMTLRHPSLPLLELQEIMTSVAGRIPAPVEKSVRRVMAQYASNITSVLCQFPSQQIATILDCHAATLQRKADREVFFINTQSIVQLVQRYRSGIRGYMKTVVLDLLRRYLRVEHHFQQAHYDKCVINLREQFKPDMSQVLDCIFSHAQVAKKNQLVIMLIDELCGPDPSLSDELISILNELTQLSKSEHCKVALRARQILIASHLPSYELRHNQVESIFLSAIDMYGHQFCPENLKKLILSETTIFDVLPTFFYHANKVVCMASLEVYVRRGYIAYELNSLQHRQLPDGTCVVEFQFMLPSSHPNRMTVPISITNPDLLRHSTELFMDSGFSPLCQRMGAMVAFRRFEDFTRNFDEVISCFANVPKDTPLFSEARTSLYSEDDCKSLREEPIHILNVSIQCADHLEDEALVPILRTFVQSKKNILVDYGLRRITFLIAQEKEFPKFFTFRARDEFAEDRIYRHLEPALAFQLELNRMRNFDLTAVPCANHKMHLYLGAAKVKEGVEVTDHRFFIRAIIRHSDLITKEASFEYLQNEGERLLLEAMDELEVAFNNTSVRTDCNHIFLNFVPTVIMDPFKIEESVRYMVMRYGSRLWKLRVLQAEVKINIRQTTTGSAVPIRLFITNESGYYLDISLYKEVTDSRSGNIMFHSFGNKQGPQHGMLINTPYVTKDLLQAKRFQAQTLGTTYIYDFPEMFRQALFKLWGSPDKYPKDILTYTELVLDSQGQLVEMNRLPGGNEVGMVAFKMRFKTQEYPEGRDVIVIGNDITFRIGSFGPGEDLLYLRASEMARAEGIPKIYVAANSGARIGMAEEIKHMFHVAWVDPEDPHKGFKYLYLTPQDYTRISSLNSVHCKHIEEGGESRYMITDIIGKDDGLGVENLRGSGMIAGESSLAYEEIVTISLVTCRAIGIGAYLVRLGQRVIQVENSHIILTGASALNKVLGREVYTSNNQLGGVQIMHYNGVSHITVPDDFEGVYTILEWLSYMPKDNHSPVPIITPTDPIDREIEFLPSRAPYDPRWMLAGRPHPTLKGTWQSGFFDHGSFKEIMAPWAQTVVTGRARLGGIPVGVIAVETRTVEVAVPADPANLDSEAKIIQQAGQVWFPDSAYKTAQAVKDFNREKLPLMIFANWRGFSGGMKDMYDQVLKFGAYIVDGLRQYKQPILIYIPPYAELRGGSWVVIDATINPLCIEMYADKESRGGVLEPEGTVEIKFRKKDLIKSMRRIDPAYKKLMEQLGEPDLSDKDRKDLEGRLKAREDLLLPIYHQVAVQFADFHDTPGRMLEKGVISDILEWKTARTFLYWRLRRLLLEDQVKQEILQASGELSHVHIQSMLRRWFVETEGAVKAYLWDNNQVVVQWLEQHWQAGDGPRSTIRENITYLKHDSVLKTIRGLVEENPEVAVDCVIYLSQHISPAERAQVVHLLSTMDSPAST
# Experimental: The detailed procedure is as follows. […] 10 μL ADP glo reagent was added. […] 20 μL kinase detection reagent was added.
# [1] = test system: Collectotrichum graminicola (Cg); assay: Growth inhibition assay of fungal pathogens, Cg; format: cell-based; conditions: growth inhibition at 48 hours vs 2% DMSO control; for IC90: 48 h
# Method in brief: (§1)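 Percent inhibition derived at 48 hours from OD600 and visual scores versus 2% DMSO control, with media+DMSO blank as background. Spore inocula in 17% V8 medium were sized from 48 h growth curves; compounds tested at final 50/10/2 or 2/0.4/0.08 ppm.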
# fungal (fACC2) = fungal (fACC2) (UniProt Q00955); conditions: read-out: fACC2 (in vitro ACC2 Inhibition Assay, IC50); Table 2b, additional results; ADP-Glo, 5 nM ACC2, 20 μM ATP, 20 μM acetyl-CoA
# fungal (fACC2), sequence (Q00955 whole entry): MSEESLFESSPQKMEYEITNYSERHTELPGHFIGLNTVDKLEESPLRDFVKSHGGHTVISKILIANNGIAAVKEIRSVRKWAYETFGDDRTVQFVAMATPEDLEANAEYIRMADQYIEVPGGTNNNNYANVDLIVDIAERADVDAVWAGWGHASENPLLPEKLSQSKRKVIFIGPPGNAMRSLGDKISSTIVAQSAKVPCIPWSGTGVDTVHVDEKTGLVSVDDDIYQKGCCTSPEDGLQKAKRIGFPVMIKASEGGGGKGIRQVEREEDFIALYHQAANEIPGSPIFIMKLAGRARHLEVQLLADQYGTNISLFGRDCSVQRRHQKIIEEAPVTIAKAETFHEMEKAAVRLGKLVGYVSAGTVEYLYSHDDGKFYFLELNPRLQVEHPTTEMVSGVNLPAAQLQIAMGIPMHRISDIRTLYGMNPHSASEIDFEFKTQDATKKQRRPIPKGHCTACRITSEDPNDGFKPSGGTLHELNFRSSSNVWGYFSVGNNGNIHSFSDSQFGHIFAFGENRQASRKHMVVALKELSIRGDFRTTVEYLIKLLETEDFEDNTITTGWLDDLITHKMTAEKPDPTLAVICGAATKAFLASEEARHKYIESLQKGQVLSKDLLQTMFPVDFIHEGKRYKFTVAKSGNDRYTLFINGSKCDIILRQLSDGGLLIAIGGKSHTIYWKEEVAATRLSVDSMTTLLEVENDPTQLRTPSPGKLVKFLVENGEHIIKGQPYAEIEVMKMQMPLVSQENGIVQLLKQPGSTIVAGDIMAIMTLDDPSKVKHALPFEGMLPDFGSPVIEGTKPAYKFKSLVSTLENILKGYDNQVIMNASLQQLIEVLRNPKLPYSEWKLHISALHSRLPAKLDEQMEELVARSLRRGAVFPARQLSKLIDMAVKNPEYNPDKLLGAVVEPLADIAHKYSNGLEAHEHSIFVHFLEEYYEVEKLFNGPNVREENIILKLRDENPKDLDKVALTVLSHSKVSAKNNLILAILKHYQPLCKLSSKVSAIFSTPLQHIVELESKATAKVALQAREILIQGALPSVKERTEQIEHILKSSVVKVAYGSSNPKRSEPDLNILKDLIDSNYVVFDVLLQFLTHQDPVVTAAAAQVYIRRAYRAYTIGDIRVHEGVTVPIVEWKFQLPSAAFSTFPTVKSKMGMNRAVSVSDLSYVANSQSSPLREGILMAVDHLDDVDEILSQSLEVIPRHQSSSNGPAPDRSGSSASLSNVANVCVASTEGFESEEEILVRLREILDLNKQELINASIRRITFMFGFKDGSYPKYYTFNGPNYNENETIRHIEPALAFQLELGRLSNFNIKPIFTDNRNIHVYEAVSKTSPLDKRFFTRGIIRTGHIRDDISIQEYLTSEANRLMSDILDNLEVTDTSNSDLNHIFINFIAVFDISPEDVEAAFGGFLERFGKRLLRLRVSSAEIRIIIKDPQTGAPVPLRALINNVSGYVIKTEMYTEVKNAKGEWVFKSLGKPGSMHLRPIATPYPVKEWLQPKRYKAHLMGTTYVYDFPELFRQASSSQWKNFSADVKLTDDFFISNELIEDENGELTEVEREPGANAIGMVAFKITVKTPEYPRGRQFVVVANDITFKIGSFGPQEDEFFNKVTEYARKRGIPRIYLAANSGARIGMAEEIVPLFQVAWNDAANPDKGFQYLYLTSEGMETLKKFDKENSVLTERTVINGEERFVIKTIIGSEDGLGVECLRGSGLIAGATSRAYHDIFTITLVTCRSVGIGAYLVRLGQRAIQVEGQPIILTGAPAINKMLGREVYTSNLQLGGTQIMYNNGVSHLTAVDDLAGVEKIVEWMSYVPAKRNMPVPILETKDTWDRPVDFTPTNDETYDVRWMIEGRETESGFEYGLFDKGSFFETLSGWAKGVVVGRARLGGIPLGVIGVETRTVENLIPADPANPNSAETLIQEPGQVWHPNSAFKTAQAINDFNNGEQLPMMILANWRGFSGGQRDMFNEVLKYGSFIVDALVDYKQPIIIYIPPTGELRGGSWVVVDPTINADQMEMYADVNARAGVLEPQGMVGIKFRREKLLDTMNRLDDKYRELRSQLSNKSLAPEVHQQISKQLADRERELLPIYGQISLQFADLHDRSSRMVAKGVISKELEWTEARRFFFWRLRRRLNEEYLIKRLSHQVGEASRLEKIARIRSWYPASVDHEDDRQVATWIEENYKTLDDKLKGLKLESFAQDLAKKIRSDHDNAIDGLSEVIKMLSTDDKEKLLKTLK
# Septoria tritici (St) = assay: Growth inhibition assay of fungal pathogens, St; format: cell-based; conditions: growth inhibition at 48 hours vs 2% DMSO control; for IC90: Zymoseptoria tritici, 48 h
# Method in brief: as §1
# Diplodia maydis (Dm) = assay: Growth inhibition assay of fungal pathogens, Dm; format: cell-based; conditions: growth inhibition at 48 hours vs 2% DMSO control; for IC90: Stenocarpella maydis, 48 h
# Method in brief: as §1
# C. krusei = assay: Antifungal Activity Assay (broth microtiter MIC), C. krusei; format: cell-based, Candida krusei; conditions: for MIC: Pichia kudriavzevii, ATCC6258, 48 h
# Method in brief: (§2)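 MIC read by eye at 48 h, comparing challenged wells with the growth control. Yeasts grown overnight on Sabouraud dextrose agar at 35° C, suspended in RPMI 1640+MOPS and added at 2.5×10^3 CFU/mL final, following CLSI M27-A3.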
# [2] = test system: Fusarium moniliforme (Fm); assay: Growth inhibition assay of fungal pathogens, Fm; format: cell-based; conditions: for IC90: Fusarium verticillioides, 48 h, read-out: Concentration at 90% Inhibition Fm
# Method in brief: as §1
# C. albicans = assay: Antifungal Activity Assay (broth microtiter MIC), C. albicans; format: cell-based, Candida albicans; conditions: for MIC: Candida albicans, ATCC90028, 48 h
# Method in brief: as §2
# Botrtyis cinerea (Bc) = assay: Growth inhibition assay of fungal pathogens, Bc; format: cell-based; conditions: growth inhibition at 48 hours vs 2% DMSO control; for IC90: 48 h
# Method in brief: as §1
# C. parapsilosis = assay: Antifungal Activity Assay (broth microtiter MIC), C. parapsilosis; format: cell-based, Candida parapsilosis; conditions: for MIC: Lodderomyces parapsilosis, ATCC22019, 48 h
# Method in brief: as §2
# [3] = test system: Fusarium virguliforme (Fv); assay: Growth inhibition assay of fungal pathogens, Fv; format: cell-based; conditions: for IC90: 48 h
# Method in brief: as §1
# [4] = test system: Phytophthora capsici (Pc); assay: Growth inhibition assay of fungal pathogens, Pc; format: cell-based; conditions: for IC90: 48 h
# Method in brief: as §1
# [5] = mycelial plugs, growth inhibition at 48 hours vs 2% DMSO control, read-out: Concentration at 90% Inhibition Rs
# [6] = Collectotrichum graminicola, read-out: Concentration at 90% Inhibition Cg
# [7] = Septoria tritici, read-out: Concentration at 90% Inhibition St
# [8] = Diplodia maydis, read-out: Concentration at 90% Inhibition Dm
# [9] = Table 3b (additional results), ATCC 6258, 3 replicates, MIC recorded at 48 h, read-out: MIC, C. krusei ATCC 6258
# [10] = Fusarium moniliforme, growth inhibition at 48 hours vs 2% DMSO control
# [11] = Table 3b (additional results), ATCC 90028, 3 replicates, MIC recorded at 48 h, read-out: MIC, C. albicans ATCC 90028
# [12] = Botrtyis cinerea, read-out: Concentration at 90% Inhibition Bc
# [13] = Table 3b (additional results), ATCC 22019, 3 replicates, MIC recorded at 48 h, read-out: MIC, C. parapsilosis ATCC 22019
# [14] = growth inhibition at 48 hours vs 2% DMSO control, read-out: Concentration at 90% Inhibition Fv
# [15] = growth inhibition at 48 hours vs 2% DMSO control, read-out: Concentration at 90% Inhibition Pc
# [16] = growth inhibition at 48 hours vs 2% DMSO control
# [17] = Table 3b (additional results), 3 replicates, MIC recorded at 48 h
smiles,measurement,setting,value
COc1ccc(F)cc1[C@H](Cn1c(=O)n(C(C)(C)C(=O)NC(C)C)c(=O)c2c(C)c(-n3nccn3)sc21)OC(=O)CO [Compound I-262],IC90,Rhizoctonia solani (Rs); [5],> 50 µg/mL
same,IC50,human (hACC2),> 40 nM
same,IC90,[1]; [6],> 50 µg/mL
same,IC50,fungal (fACC2),5 to 10 nM
same,IC90,Septoria tritici (St); [7],> 50 µg/mL
same,IC90,Diplodia maydis (Dm); [8],> 50 µg/mL
same,MIC,C. krusei; [9],0.06 to 0.249 µg/mL
same,IC90,[2]; [10],10 µg/mL
same,MIC,C. albicans; [11],0.25 to 1 µg/mL
same,IC90,Botrtyis cinerea (Bc); [12],> 50 µg/mL
same,MIC,C. parapsilosis; [13],1.01 to 2 µg/mL
same,IC90,[3]; [14],10 µg/mL
same,IC90,[4]; [15],> 50 µg/mL
COc1ccc(F)cc1CCn1c(=O)n(C(C)(C)C(=O)NC(C)C)c(=O)c2c(C)c(-n3nccn3)sc21 [Compound I-266],IC90,Rhizoctonia solani (Rs); [5],2 µg/mL
same,IC50,human (hACC2),5 to 10 nM
same,Concentration at 90% Inhibition Cg,[1]; Collectotrichum graminicola,B (compound concentration of 2.0 ppm at 90% inhibition of fungal pathogens)
same,IC50,fungal (fACC2),1 to 5 nM
same,IC90,Septoria tritici (St); [7],> 50 µg/mL
same,IC90,Diplodia maydis (Dm); [8],10 µg/mL
same,MIC,C. krusei; [9],0.25 to 1 µg/mL
same,Concentration at 90% Inhibition Fm,[2]; [10],B (compound concentration of 2.0 ppm at 90% inhibition of fungal pathogens)
same,MIC,C. albicans; [11],1.01 to 2 µg/mL
same,Concentration at 90% Inhibition Bc,Botrtyis cinerea (Bc); Botrtyis cinerea,B (compound concentration of 2.0 ppm at 90% inhibition of fungal pathogens)
same,MIC,C. parapsilosis; [13],1.01 to 2 µg/mL
same,Concentration at 90% Inhibition Fv,[3]; [16],B (compound concentration of 2.0 ppm at 90% inhibition of fungal pathogens)
same,IC90,[4]; [15],> 50 µg/mL
COc1ccc(F)cc1[C@@H](CCCO)Cn1c(=O)n(C(C)(C)C(=O)NC(C)C)c(=O)c2c(C)c(-n3nccn3)sc21 [Compound I-267],IC90,"Rhizoctonia solani (Rs); read-out: Concentration at 90% Inhibition Rs, Rhizoctonia solani, mycelial plugs, growth inhibition at 48 hours vs 2% DMSO control",> 50 µg/mL
same,IC50,human (hACC2),> 40 nM
same,IC90,"[1]; read-out: Concentration at 90% Inhibition Cg, Collectotrichum graminicola",> 50 µg/mL
same,IC50,fungal (fACC2),1 to 5 nM
same,IC90,"Septoria tritici (St); read-out: Concentration at 90% Inhibition St, Septoria tritici",> 50 µg/mL
same,IC90,"Diplodia maydis (Dm); read-out: Concentration at 90% Inhibition Dm, Diplodia maydis",> 50 µg/mL
same,MIC,"C. krusei; read-out: MIC, C. krusei ATCC 6258, Table 3b (additional results), 3 replicates, MIC recorded at 48 h",0.06 to 0.249 µg/mL
same,IC90,[2],2 µg/mL
same,MIC,"C. albicans; read-out: MIC, C. albicans ATCC 90028, Table 3b (additional results), 3 replicates, MIC recorded at 48 h",0.25 to 1 µg/mL
same,IC90,"Botrtyis cinerea (Bc); read-out: Concentration at 90% Inhibition Bc, Botrtyis cinerea",> 50 µg/mL
same,MIC,"C. parapsilosis; read-out: MIC, C. parapsilosis ATCC 22019, Table 3b (additional results), 3 replicates, MIC recorded at 48 h",0.25 to 1 µg/mL
same,IC90,"[3]; read-out: Concentration at 90% Inhibition Fv, Fusarium virguliforme, growth inhibition at 48 hours vs 2% DMSO control",10 µg/mL
same,IC90,"[4]; read-out: Concentration at 90% Inhibition Pc, Phytophthora capsici, growth inhibition at 48 hours vs 2% DMSO control",> 50 µg/mL
COc1ccc(F)cc1CCn1c(=O)n(C(C)(C)C(=O)NC(C)C)c(=O)c2c(C)c(-n3nccn3)sc21 [Compound I-268],Concentration at 90% Inhibition Rs,"Rhizoctonia solani (Rs); mycelial plugs, growth inhibition at 48 hours vs 2% DMSO control",B (compound concentration of 2.0 ppm at 90% inhibition of fungal pathogens)
same,IC50,human (hACC2),10 to 40 nM
same,Concentration at 90% Inhibition Cg,[1]; Collectotrichum graminicola,C (compound concentration of 10.0 ppm at 90% inhibition of fungal pathogens)
same,IC50,fungal (fACC2),1 to 5 nM
same,Concentration at 90% Inhibition St,Septoria tritici (St); Septoria tritici,D (compound concentration of >50 ppm at 90% inhibition of fungal pathogens)
same,Concentration at 90% Inhibition Dm,Diplodia maydis (Dm); Diplodia maydis,C (compound concentration of 10.0 ppm at 90% inhibition of fungal pathogens)
same,"MIC, C. krusei ATCC 6258",C. krusei; [17],A (MIC of 0.25-1.0 μg/mL)
same,Concentration at 90% Inhibition Fm,[2]; [10],A (compound concentration of 0.4 ppm at 90% inhibition of fungal pathogens)
same,"MIC, C. albicans ATCC 90028",C. albicans; [17],B (MIC of 1.01-2.0 μg/mL)
same,Concentration at 90% Inhibition Bc,Botrtyis cinerea (Bc); Botrtyis cinerea,A (compound concentration of 0.4 ppm at 90% inhibition of fungal pathogens)
same,"MIC, C. parapsilosis ATCC 22019",C. parapsilosis; [17],B (MIC of 1.01-2.0 μg/mL)
same,Concentration at 90% Inhibition Fv,[3]; [16],AA (compound concentration of 0.08 ppm at 90% inhibition of fungal pathogens)
same,Concentration at 90% Inhibition Pc,[4]; [16],D (compound concentration of >50 ppm at 90% inhibition of fungal pathogens)
Cc1c(-n2nccn2)sc2c1c(=O)n(C(C)(C)C(=O)NC(C)C)c(=O)n2C[C@H](OCCC#N)c1ccccc1O [Compound I-271],IC90,Rhizoctonia solani (Rs); [5],10 µg/mL
same,IC50,human (hACC2),5 to 10 nM
same,IC90,[1]; [6],> 50 µg/mL
same,IC50,fungal (fACC2),0.3 to 1 nM
same,IC90,Septoria tritici (St); [7],> 50 µg/mL
same,IC90,Diplodia maydis (Dm); [8],> 50 µg/mL
same,MIC,C. krusei; [9],2.01 to 4 µg/mL
same,IC90,[2]; [10],2 µg/mL
same,MIC,C. albicans; [11],2.01 to 4 µg/mL
same,IC90,Botrtyis cinerea (Bc); [12],10 µg/mL
same,MIC,C. parapsilosis; [13],2.01 to 4 µg/mL
same,IC90,[3]; [14],2 µg/mL
same,IC90,[4]; [15],> 50 µg/mL
CC(=O)Oc1ccccc1[C@H](Cn1c(=O)n(C(C)(C)C(=O)NC(C)C)c(=O)c2c(C)c(-n3nccn3)sc21)OCCC#N [Compound I-272],IC90,Rhizoctonia solani (Rs); [5],2 µg/mL
same,IC50,human (hACC2),1 to 5 nM
same,IC90,[1]; [6],2 µg/mL
same,IC50,fungal (fACC2),0.3 to 1 nM
same,IC90,Septoria tritici (St); [7],> 50 µg/mL
same,IC90,Diplodia maydis (Dm); [8],10 µg/mL
same,MIC,C. krusei; [9],1.01 to 2 µg/mL
same,IC90,[2]; [10],0.08 µg/mL
same,MIC,C. albicans; [11],1.01 to 2 µg/mL
same,IC90,Botrtyis cinerea (Bc); [12],2 µg/mL
same,MIC,C. parapsilosis; [13],1.01 to 2 µg/mL
same,IC90,[3]; [14],0.4 µg/mL
same,IC90,[4]; [15],> 50 µg/mL
